# Measured values: patent US12202818B2, “Compounds and methods for CD73 modulation and indications therefor” (Opna Bio SA, priority 2020, dated 2025)
# How the values were obtained:
# human CD73 = target: T1, human CD73 (Homo sapiens, UniProt P21589); experiment: Inhibitor activity against CD73 in cell based assay (CD73 expressing CHO-K1 cells); details: CHO-K1 cells expressing human CD73, 150 μM AMP, 4 hours of incubation; read-out: CHO-K1 CELL_VARIANT: CD73 IC50
# T1 construct: expressed in transfected cells
# T1 sequence (P21589 27-549): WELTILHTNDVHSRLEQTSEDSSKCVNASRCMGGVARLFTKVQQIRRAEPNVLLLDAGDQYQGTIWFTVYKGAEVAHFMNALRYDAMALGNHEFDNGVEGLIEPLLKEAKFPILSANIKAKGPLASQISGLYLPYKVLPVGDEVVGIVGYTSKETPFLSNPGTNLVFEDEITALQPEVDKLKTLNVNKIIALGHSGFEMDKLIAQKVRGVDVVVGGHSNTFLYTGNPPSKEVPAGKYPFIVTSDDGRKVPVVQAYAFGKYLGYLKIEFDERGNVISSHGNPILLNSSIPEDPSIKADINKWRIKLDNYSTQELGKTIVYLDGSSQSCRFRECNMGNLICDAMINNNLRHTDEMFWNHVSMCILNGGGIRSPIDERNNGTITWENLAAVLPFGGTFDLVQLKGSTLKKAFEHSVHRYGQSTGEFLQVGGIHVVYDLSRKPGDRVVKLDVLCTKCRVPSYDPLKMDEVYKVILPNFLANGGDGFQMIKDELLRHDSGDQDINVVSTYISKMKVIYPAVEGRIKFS
# Outline: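 Stable human CD73 CHO-K1 cells, 1×10^4/well, exposed to an 8-point 1:3 compound series (top 10 μM, 0.2% DMSO) plus 150 μM AMP for 4 h. Remaining AMP in the supernatant was read by CellTiter-Glo 2.0 luminescence with 1 μM ATP after 30 min at room temperature. IC50 came from nonlinear regression of % inhibition against cell and media-only controls.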
# [1] = target: T2, Human CD73 (amino acid residues 27-549) (Homo sapiens, UniProt P21589); experiment: CD73 enzymatic assay (luciferase-based indirect assay, CellTiter-Glo); format: biochemical; details: 0.4 nM CD73, 150 μM AMP, 1 hour at room temperature
# T2 construct: Human CD73 (amino acid residues 27-549); His tag (N); made in house; host or cells: E. coli
# T2 sequence (P21589 27-549): T1 sequence (P21589 27-549)
# Outline: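 N-His human CD73 (27-549) expressed in E. coli, 0.4 nM, incubated with 150 μM AMP and compound in 50 mM HEPES pH 7.4, 0.01% Tween-20, 1 h at RT. Remaining AMP read via CellTiter-Glo luminescence with 1 μM ATP after 30 min; IC50 from nonlinear regression of % inhibition.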
SMILES,IC50 (human CD73) [µM],IC50 [1] [µM]
"O=c1c(Cl)c(N2CC[C@@H](Oc3cc(N4[C@@H]5CC[C@H]4CC(F)(F)C5)ccn3)C2)cnn1CCO [P-0107, 4-chloro-5-((R)-3-((4-((1R,5S)-3,3-difluoro-8-azabicyclo[3.2.1]octan-8-yl)pyridin-2-yl)oxy)pyrrolidin-1-yl)-2-(2-hydroxyethyl)pyridazin-3(2H)-one]",10 to 100,0.001 to 10
"COc1ccc2c(c1)cc(-c1ccnc(O[C@@H]3CCN(c4cn[nH]c(=O)c4Cl)C3)c1)n2C [P-0108, (R)-4-chloro-5-(3-((4-(5-methoxy-1-methyl-1H-indol-2-yl)pyridin-2-yl)oxy)pyrrolidin-1-yl)pyridazin-3(2H)-one]",0.001 to 10,0.001 to 10
"CC(C)c1cc(Nc2cccnc2O[C@@H]2CCN(c3cn[nH]c(=O)c3Cl)C2)n(C)n1 [P-0109, (R)-4-chloro-5-(3-((3-((3-isopropyl-1-methyl-1H-pyrazol-5-yl)amino)pyridin-2-yl)oxy)pyrrolidin-1-yl)pyridazin-3(2H)-one]",0.001 to 10,0.001 to 10
"O=c1[nH]ncc(N2CC[C@@H](Oc3ncccc3NC3CCC(F)(F)CC3)C2)c1Cl [P-0110, (R)-4-chloro-5-(3-((3-((4,4-difluorocyclohexyl)amino)pyridin-2-yl)oxy)pyrrolidin-1-yl)pyridazin-3(2H)-one]",0.001 to 10,0.001 to 10
"O=c1[nH]ncc(N2CC[C@@H](Oc3cc(N4[C@@H]5CC[C@H]4CC(F)(F)C5)ccn3)C2)c1Cl [P-0111, 4-chloro-5-((R)-3-((4-((1R,5S)-3,3-difluoro-8-azabicyclo[3.2.1]octan-8-yl)pyridin-2-yl)oxy)pyrrolidin-1-yl)pyridazin-3(2H)-one]",10 to 100,0.001 to 10
"Cc1nn(CC2(C)COC2)c(C)c1-c1ccnc(O[C@@H]2CCN(c3cnn(CCO)c(=O)c3Cl)C2)c1 [P-0112, (R)-4-chloro-5-(3-((4-(3,5-dimethyl-1-((3-methyloxetan-3-yl)methyl)-1H-pyrazol-4-yl)pyridin-2-yl)oxy)pyrrolidin-1-yl)-2-(2-hydroxyethyl)pyridazin-3(2H)-one]",0.001 to 10,0.001 to 10
"Cc1nn(C)c(C)c1-c1ccnc(O[C@@H]2CCN(c3cn[nH]c(=O)c3)C2)c1 [P-0113, (R)-5-(3-((4-(1,3,5-trimethyl-1H-pyrazol-4-yl)pyridin-2-yl)oxy)pyrrolidin-1-yl)pyridazin-3(2H)-one]",0.001 to 10,0.001 to 10
"Cc1nn(C)c(C)c1-c1ccnc(O[C@@H]2CCN(c3cn[nH]c(=O)c3C#N)C2)c1 [P-0114, (R)-3-oxo-5-(3-((4-(1,3,5-trimethyl-1H-pyrazol-4-yl)pyridin-2-yl)oxy)pyrrolidin-1-yl)-2,3-dihydropyridazine-4-carbonitrile]",0.001 to 10,0.001 to 10
"Cc1nn(C)c(C)c1-c1cc(O[C@@H]2CCN(c3cnn(CCO)c(=O)c3Cl)C2)ncc1F [P-0115, (R)-4-chloro-5-(3-((5-fluoro-4-(1,3,5-trimethyl-1H-pyrazol-4-yl)pyridin-2-yl)oxy)pyrrolidin-1-yl)-2-(2-hydroxyethyl)pyridazin-3(2H)-one]",0.001 to 10,0.001 to 10
"O=c1[nH]ncc(N2CC[C@@H](Oc3cc(C4=CCCCC4)ccn3)C2)c1Cl [P-0116, (R)-4-chloro-5-(3-((4-(cyclohex-1-en-1-yl)pyridin-2-yl)oxy)pyrrolidin-1-yl)pyridazin-3(2H)-one]",0.001 to 10,0.001 to 10
"Cc1nn(C)c(C)c1-c1cc(O[C@@H]2CCN(c3cn[nH]c(=O)c3Cl)C2)c(F)cn1 [P-0117, (R)-4-chloro-5-(3-((5-fluoro-2-(1,3,5-trimethyl-1H-pyrazol-4-yl)pyridin-4-yl)oxy)pyrrolidin-1-yl)pyridazin-3(2H)-one]",0.001 to 10,0.001 to 10
"Cc1noc(C)c1-c1cc(O[C@@H]2CCN(c3cn[nH]c(=O)c3Cl)C2)c(F)cn1 [P-0118, (R)-4-chloro-5-(3-((2-(3,5-dimethylisoxazol-4-yl)-5-fluoropyridin-4-yl)oxy)pyrrolidin-1-yl)pyridazin-3(2H)-one]",0.001 to 10,0.001 to 10
"Cc1nn(C)c(C)c1-c1cc(O[C@H]2CN(c3cnn(CCO)c(=O)c3Cl)C[C@@H]2F)ccn1 [P-0119, 4-chloro-5-((3S,4S)-3-fluoro-4-((2-(1,3,5-trimethyl-1H-pyrazol-4-yl)pyridin-4-yl)oxy)pyrrolidin-1-yl)-2-(2-hydroxyethyl)pyridazin-3(2H)-one]",0.001 to 10,0.001 to 10
"Cc1noc(C)c1-c1cc(O[C@H]2CN(c3cnn(CCO)c(=O)c3Cl)C[C@@H]2F)ccn1 [P-0120, 4-chloro-5-((3S,4S)-3-((2-(3,5-dimethylisoxazol-4-yl)pyridin-4-yl)oxy)-4-fluoropyrrolidin-1-yl)-2-(2-hydroxyethyl)pyridazin-3(2H)-one]",0.001 to 10,0.001 to 10
"Cc1nn(C)c(C)c1-c1cc(O[C@H]2CN(c3cn[nH]c(=O)c3Cl)C[C@@H]2F)ccn1 [P-0121, 4-chloro-5-((3S,4S)-3-fluoro-4-((2-(1,3,5-trimethyl-1H-pyrazol-4-yl)pyridin-4-yl)oxy)pyrrolidin-1-yl)pyridazin-3(2H)-one]",0.001 to 10,0.001 to 10
"Cc1noc(C)c1-c1cc(O[C@H]2CN(c3cn[nH]c(=O)c3Cl)C[C@@H]2F)ccn1 [P-0122, 4-chloro-5-((3S,4S)-3-((2-(3,5-dimethylisoxazol-4-yl)pyridin-4-yl)oxy)-4-fluoropyrrolidin-1-yl)pyridazin-3(2H)-one]",0.001 to 10,0.001 to 10
"Cc1noc(C)c1-c1cc(F)nc(O[C@@H]2CCN(c3cnn(CCO)c(=O)c3Cl)C2)c1 [P-0123, (R)-4-chloro-5-(3-((4-(3,5-dimethylisoxazol-4-yl)-6-fluoropyridin-2-yl)oxy)pyrrolidin-1-yl)-2-(2-hydroxyethyl)pyridazin-3(2H)-one]",0.001 to 10,0.001 to 10
"COCc1noc(C)c1-c1cc(O[C@@H]2CCN(c3cnn(CCO)c(=O)c3Cl)C2)ncn1 [P-0124, (R)-4-chloro-2-(2-hydroxyethyl)-5-(3-((6-(3-(methoxymethyl)-5-methylisoxazol-4-yl)pyrimidin-4-yl)oxy)pyrrolidin-1-yl)pyridazin-3(2H)-one]",0.001 to 10,0.001 to 10
"COCc1noc(C)c1-c1cc(O[C@@H]2CCN(c3cn[nH]c(=O)c3Cl)C2)ncn1 [P-0125, (R)-4-chloro-5-(3-((6-(3-(methoxymethyl)-5-methylisoxazol-4-yl)pyrimidin-4-yl)oxy)pyrrolidin-1-yl)pyridazin-3(2H)-one]",0.001 to 10,0.001 to 10
"Cc1nn(C)c(C)c1-c1ccnc(O[C@@H]2CCN(c3cnn(CC(C)O)c(=O)c3Cl)C2)c1 (stereo partly drawn) [P-0126, 4-chloro-2-(2-hydroxypropyl)-5-((R)-3-((4-(1,3,5-trimethyl-1H-pyrazol-4-yl)pyridin-2-yl)oxy)pyrrolidin-1-yl)pyridazin-3(2H)-one]",0.001 to 10,0.001 to 10
"Cc1nn(C)c(C)c1-c1ccnc(O[C@@H]2CCN(c3cnn(CCCO)c(=O)c3Cl)C2)c1 [P-0127, (R)-4-chloro-2-(3-hydroxypropyl)-5-(3-((4-(1,3,5-trimethyl-1H-pyrazol-4-yl)pyridin-2-yl)oxy)pyrrolidin-1-yl)pyridazin-3(2H)-one]",0.001 to 10,0.001 to 10
"Cc1nn(C)c(C)c1-c1cc(O[C@@H]2CCN(c3cnn(CCO)c(=O)c3Cl)C2)ncn1 [P-0128, (R)-4-chloro-2-(2-hydroxyethyl)-5-(3-((6-(1,3,5-trimethyl-1H-pyrazol-4-yl)pyrimidin-4-yl)oxy)pyrrolidin-1-yl)pyridazin-3(2H)-one]",0.001 to 10,0.001 to 10
"Cc1noc(C)c1-c1cc(O[C@H]2CN(c3cnn(CC(O)CO)c(=O)c3Cl)C[C@@H]2F)ncc1F (stereo partly drawn) [P-0129, 4-chloro-2-(2,3-dihydroxypropyl)-5-((3S,4S)-3-((4-(3,5-dimethylisoxazol-4-yl)-5-fluoropyridin-2-yl)oxy)-4-fluoropyrrolidin-1-yl)pyridazin-3(2H)-one]",0.001 to 10,0.001 to 10
"Cc1nn(CC2(F)COC2)c(C)c1-c1ccnc(O[C@@H]2CCN(c3cn[nH]c(=O)c3Cl)C2)c1 [P-0130, (R)-4-chloro-5-(3-((4-(1-((3-fluorooxetan-3-yl)methyl)-3,5-dimethyl-1H-pyrazol-4-yl)pyridin-2-yl)oxy)pyrrolidin-1-yl)pyridazin-3(2H)-one]",0.001 to 10,0.001 to 10
"Cc1nn(C)c(C)c1-c1ccnc(O[C@@H]2CCN(c3cnn(CC(O)CO)c(=O)c3Cl)C2)c1 (stereo partly drawn) [P-0131, 4-chloro-2-(2,3-dihydroxypropyl)-5-((R)-3-((4-(1,3,5-trimethyl-1H-pyrazol-4-yl)pyridin-2-yl)oxy)pyrrolidin-1-yl)pyridazin-3(2H)-one]",0.001 to 10,0.001 to 10
